According to patent publication US20050197350A1, “Novel quinoline, tetrahydroquinazoline, and pyrimidine derivatives and methods of treatment related to the use thereof” (TAISHO PHARMACEUTICAL CO., LTD., priority 2003, published 2005):
Where a name gives a salt, the structure may show the parent alone.

The compounds below were run on MCH receptors (assay: MCH receptor activity class (method not given)). Conditions: MCH receptor activity class 1-3 (percent of control at 10^-7 M or IC50).

Row | Compound | class
1 | N-[(cis-4-{[4-(dimethylamino)pyrimidin-2-yl]amino}cyclohexyl)methyl]-N′-(2-ethyl-6-isopropylphenyl)urea [compound 2422] | 1 (Class 1: The value of percent of control at 10^−7 M was less than 40% or the value of IC50 was less than 50 nM.)

Same assay, conditions: MCH receptor; class by percent of control at 10^-7 M or IC50

Row | Compound | class
2 | N-cyclopropyl-N′-(cis-4-{[4-(dimethylamino)-5,6,7,8-tetrahydroquinazolin-2-yl]amino}cyclohexyl)thiourea [compound 2028] | 3 (Class 3 The value of percent of control at 10^−7 M was more than 60% or the value of IC50 was more than 200 nM.)

Same assay, conditions: class by percent of control at 10^-7 M or IC50

Row | Compound | class
3 | (2-{[4-(4-Dimethylamino-5,6,7,8-tetrahydro-quinazolin-2-ylamino)-cyclohexylamino]-methyl}-cyclohexyl)-phenyl-methanol [compound 1492] | 3 (Class 3 The value of percent of control at 10^−7 M was more than 60% or the value of IC50 was more than 200 nM.)
4 | (3-{(1S)-2-[(cis-4-([4-(dimethylamino)-5,6,7,8-tetrahydroquinazolin-2-yl]amino}cyclohexyl)amino]-1-methylethyl}phenyl)(phenyl)methanol [compound 1496] | 3 (Class 3 The value of percent of control at 10^−7 M was more than 60% or the value of IC50 was more than 200 nM.)
5 | N4,N4-dimethyl-N2-(cis-4-{[(2,4,5-trimethoxybenzyl)amino]-methyl}cyclohexyl)-5,6,7,8-tetrahydroquinazoline-2,4-diamine [compound 1416] | 1 (Class 1: The value of percent of control at 10^−7 M was less than 40% or the value of IC50 was less than 50 nM.)

Same assay, conditions: class by percent of control at 10^−7 M or IC50

Row | Compound | class
6 | CNc1nc(N[C@H]2CC[C@@H](NC(=O)c3ccc(Cl)c(Cl)c3)CC2)ncc1C [compound 3030] | 3 (Class 3 The value of percent of control at 10^−7 M was more than 60% or the value of IC50 was more than 200 nM.)
7 | N-(3,4-dimethoxyphenyl)-N′-(cis-4-{[4-(dimethylamino)-5,6-dimethylpyrimidin-2-yl]amino}cyclohexyl)urea [compound 2867] | 1 (Class 1: The value of percent of control at 10^−7 M was less than 40% or the value of IC50 was less than 50 nM.)

These compounds were tested against MCH receptor (Homo sapiens, UniProt Q99705) (assay: High throughput functional screening FLIPR/FDSS6000 (intracellular Ca2+ evoked by MCH)). Conditions: FLIPR/FDSS, antagonist activity vs 50 nM MCH; class by percent of control at 10^−7 M or IC50; read-out: class.
Format: cell-based
From the text: High Throughput Functional Screening: FLIPR™
This assay utilized a non-endogenous, constitutively active version of the MCH receptor.
The concentration of free Ca^2+ in the cytosol of any cell is extremely low, whereas its concentration in the extracellular fluid and endoplasmic reticulum (ER) is very high. Thus, there is a large gradient tending to drive Ca^2+ into the cytosol across both the plasma membrane and ER. The FLIPR™ and FDSS6000™ systems (Molecular Devices Corporation, […] Photonics K.K.) are designed to perform functional cell-based assays, such as the measurement of intracellular calcium for high-throughput screening. The measurement of fluorescent is associated with calcium release upon activation of the Gq-coupled receptors.
Fluorometric Imaging Plate Reader system was used to allow for rapid, kinetic measurements of intracellular fluorescence in 96 well microplates (or 384 well microplates). Simultaneous measurements of fluorescence in all wells can be made by FLIPR or FDSS6000™ every second with high sensitivity and precision. These systems are ideal for measuring cell-based functional assays such as monitoring the intracellular calcium fluxes that occur within seconds after activation of the Gq coupled receptor.
Briefly, the cells are seeded into 96 well at 5.5×10^4 cells/well with complete culture media (Dulbecco's Modified Eagle Medium with 10% fetal bovine serum, 2 mM L-glutamine, 1 mM sodium pyruvate and 0.5 mg/ml G418, pH 7.4) for the assay next day. On the day of assay, the media is removed and the cells are incubated with 100 μl of loading buffer (4 μM Fluo4-AM in complete culture media containing 2.5 mM Probenicid, 0.5 mg/ml and 0.2% bovine serum albumin) in 5% CO2 incubator at 37° C. for 1 hr. The loading buffer is removed, and the cells are washed with wash buffer (Hank's Balanced Salt Solution containing 2.5 mM Probenicid, 20 mM HEPES, 0.5 mg/ml and 0.2% bovine serum albumin, pH 7.4)). One hundred fifty μl of wash buffer containing various concentrations of test compound is added to the cells, and the cells are incubated in 5% CO2 incubator at 37° C. for 30 min. […] 530 nm for 290 second. When antagonist activity of compound is tested, 50 nM of MCH is used.
Use of FLIPR™ and FDSS6000™ can be accomplished by following manufacturer's instruction (Molecular Device Corporation and […] Photonics K.K.).

Row | Compound | IC50
8 | Cc1cnc(N[C@H]2CC[C@@H](NC(=O)[C@@H]3C[C@H]3c3ccc(Cl)cc3)CC2)nc1N(C)C (relative stereo) [Example 3316, trans-2-(4-chlorophenyl)-N-(cis-4-{[4-(dimethylamino)-5-methylpyrimidin-2-yl]amino}cyclohexyl)-cyclopropanecarboxamide] | < 50 nM
9 | Cc1cnc(N[C@H]2CC[C@@H](NC(=O)[C@@H]3C[C@H]3c3cccc(Cl)c3)CC2)nc1N(C)C (relative stereo) [Example 3317, trans-2-(3-chlorophenyl)-N-(cis-4-{[4-(dimethylamino)-5-methylpyrimidin-2-yl]amino}cyclohexyl)-cyclopropanecarboxamide] | < 50 nM
10 | Cc1cnc(N[C@H]2CC[C@@H](NC(=O)[C@@H]3C[C@H]3c3ccc(F)c(F)c3)CC2)nc1N(C)C (relative stereo) [Example 3318, trans-2-(3,4-difluorophenyl)-N-(cis-4-{[4-(dimethylamino)-5-methylpyrimidin-2-yl]amino}cyclohexyl)-cyclopropanecarboxamide] | < 50 nM
11 | Cc1cnc(N[C@H]2CC[C@@H](NC(=O)[C@@H]3C[C@H]3c3ccc(Cl)c(Cl)c3)CC2)nc1N(C)C (relative stereo) [Example 3319, trans-2-(3,4-dichlorophenyl)-N-(cis-4-{[4-(dimethylamino)-5-methylpyrimidin-2-yl]amino}cyclohexyl)-cyclopropanecarboxamide] | < 50 nM
12 | Cc1cnc(N[C@H]2CC[C@@H](NC(=O)[C@@H]3C[C@H]3c3cc(C(F)(F)F)cc(C(F)(F)F)c3)CC2)nc1N(C)C (relative stereo) [Example 3320, trans-2-[3,5-bis(trifluoromethyl)phenyl]-N-(cis-4-{[4-(dimethylamino)-5-methylpyrimidin-2-yl]amino}cyclohexyl)-cyclopropanecarboxamide] | < 50 nM

Same assay, conditions: FLIPR/FDSS, antagonist activity vs 50 nM MCH; class by percent of control at 10^−7 M or IC50; table after the classification; read-out: class

Row | Compound | IC50
13 | CNc1nc(N[C@H]2CC[C@@H](C(N)Cc3ccccc3OC(F)(F)F)CC2)nc2c1CCCC2 (relative stereo) [Example 12, N^4-Methyl-N^2-{cis-4-[(2-trifluoromethoxy-benzyl)-amino-methyl]-cyclohexyl}-5,6,7,8-tetrahydro-quinazoline-2,4-diamine dihydrochloride] | 50 to 200 nM
14 | CN(C)c1nc(N[C@H]2CC[C@@H](C(N)Cc3ccccc3OC(F)(F)F)CC2)nc2c1CCCC2 (relative stereo) [Example 16, N^4,N^4-Dimethyl-N^2-{cis-4-[(2-trifluoromethoxy-benzyl)-amino-methyl]-cyclohexyl}-5,6,7,8-tetrahydro-quinazoline-2,4-diamine dihydrochloride] | < 50 nM
15 | CNc1cc(N[C@H]2CC[C@@H](NCc3ccc(Br)cc3OC(F)(F)F)CC2)nc2ccccc12 [Example 1, N^2-[cis-4-(4-Bromo-2-triflouromethoxy-benzyl)-amino-cyclohexyl]-N^4-methyl-quinoline-2,4-diamine dihydrochloride] | 50 to 200 nM
16 | CNc1cc(N[C@H]2CC[C@@H](NCCc3ccc(Br)cc3OC(F)(F)F)CC2)nc2ccccc12 [Example 2, N^2-{cis-4-[2-(4-Bromo-2-trifluoromethoxy-phenyl)-ethylamino]-cyclohexyl}-N^4-methyl-quinoline2,4-diamine dihydrochloride] | 50 to 200 nM
17 | CNc1cc(N[C@H]2CC[C@@H](CNCc3ccc(Br)cc3OC(F)(F)F)CC2)nc2ccccc12 [Example 3, N^2-{cis-4-[(4-Bromo-2-trifluoromethhxy-benzyl)-amino-methyl]-cyclohexyl}-N^4-methyl-quinoline-2,4-diamine dihydrochloride] | < 50 nM
18 | CN(C)c1cc(N[C@H]2CC[C@@H](NCc3ccc(Br)cc3OC(F)(F)F)CC2)nc2ccccc12 [Example 5, N^2-[cis-4-(4-Bromo-2-trifluoromethoxy-benzyl)-amino-cyclohexyl]-N^4,N^4-dimethyl-quinoline-2,4-diamine dihydrochloride] | 50 to 200 nM
19 | CN(C)c1cc(N[C@H]2CC[C@@H](NCCc3ccc(Br)cc3OC(F)(F)F)CC2)nc2ccccc12 [Example 6, N^2-{cis-4-[2-(4-Bromo-2-trifluoromethoxy-phenyl)ethylamino]-cyclohexyl}-N^4,N^4-dimethyl-quinoline-2,4-diamine dihydrochloride] | 50 to 200 nM
20 | CN(C)c1cc(N[C@H]2CC[C@@H](CNCc3ccc(Br)cc3OC(F)(F)F)CC2)nc2ccccc12 [Example 7, N^2-{cis-4-[(4-Bromo-2-trifluoromethoxy-benzyl)amino-methyl]-cyclohexyl}-N^4,N^4-dimethyl-quinoline-2,4-diamine dihydrochloride] | < 50 nM
21 | CNc1nc(N[C@H]2CC[C@@H](NCc3ccc(Br)cc3OC(F)(F)F)CC2)nc2c1CCCC2 [Example 9, N^2-[cis-4-(4-Bromo-2-trifluoromethoxy-benzyl)amino-cyclohexyl]-N^4-methyl-5,6,7,8-tetrahydro-quinazoline-2,4-diamine dihydrochloride] | > 200 nM
22 | CNc1nc(N[C@H]2CC[C@@H](NCCc3ccc(Br)cc3OC(F)(F)F)CC2)nc2c1CCCC2 [Example 10, N^2-{cis-4-[2-(4-Bromo-2-trifluorometboxy-phenyl)-ethylamino]-cyclohexyl}-N^4-methyl-5,6,7,8-tetrahydro-quinazoline-2,4-diamine dihydrochloride] | 50 to 200 nM

Same assay, conditions: FLIPR/FDSS, antagonist activity vs 50 nM MCH; representative examples; read-out: IC50

Row | Compound | IC50
23 | CN(C)c1cc(N[C@H]2CC[C@@H](CNCc3ccc(Br)cc3OC(F)(F)F)CC2)nc2ccccc12 [Example 7, N^2-{cis-4-[(4-Bromo-2-trifluoromethoxy-benzyl)amino-methyl]-cyclohexyl}-N^4,N^4-dimethyl-quinoline-2,4-diamine dihydrochloride] | 11 nM
